Results taken from paper PMC7126984 (International Journal of Antimicrobial Agents, 2008).
≈ marks a conversion by molar mass, not a printed value.

What was measured:
enterovirus 71 (EV71) [1] = assay: Plaque reduction assay, EV71 in TE-671 cells; details: for IC50: Enterovirus A
[2] = test system: 2′,5′-oligoadenylate synthetase (OAS) mRNA; assay: Real-time RT-PCR of OAS mRNA in HL-CZ cells; type: cell-based, human; details: 1 μg/mL, normalised to GAPDH, vs untreated cells
[3] = test system: human protein kinase R (PKR) mRNA; assay: Real-time RT-PCR of PKR mRNA in HL-CZ cells; type: cell-based; details: 1 μg/mL, normalised to GAPDH, vs untreated cells
[4] = test system: Japanese encephalitis virus (JEV) strain T1P1; assay: Plaque reduction assay, JEV in HL-CZ cells; details: for TI (ratio of CC50 to IC50): JEV, HL-CZ cells; for IC50: Japanese encephalitis virus, 48 h
[5] = test system: interferon-stimulated response element (ISRE) promoter; assay: Dual-luciferase cis-reporter assay pISRE-Luc in HL-CZ cells; type: cell-based, human; details: 1 μg/mL, 4 h, normalised by Renilla luciferase, vs untreated cells
IFNα expression = assay: ELISA for detection of IFNα expression in TE-671 cells; type: cell-based, human; details: 48 h incubation
[6] = MTT cytotoxicity test in HL-CZ cells; details: human, HL-CZ promonocyte cells
[7] = test system: gamma-activated sequence (GAS) promoter; assay: Dual-luciferase cis-reporter assay pGAS-Luc in HL-CZ cells; type: cell-based, human; details: 1 μg/mL, 4 h, normalised by Renilla luciferase, vs untreated cells
enterovirus 71 (EV71) [8] = assay: Plaque reduction assay, EV71 in HL-CZ cells
[9] = test system: nitric oxide (NO) production; assay: NO production by DAF-2 DA fluorescence in HL-CZ cells; type: cell-based, human; details: compared with the control and shikonin
rhinovirus = details: cited from earlier work
[10] = test system: Japanese encephalitis virus (JEV) strain T1P1; assay: Plaque reduction assay, JEV in TE-671 cells; details: for TI (ratio of CC50 to IC50): JEV, TE-671 cells; for IC50: Japanese encephalitis virus; for inhibition of JEV replication in cell culture assay: dose-dependent plaque reduction assay
[11] = MTT cytotoxicity test in TE-671 cells; details: human, TE-671 medulloblastoma cells
[12] = test system: TE-671 medulloblastoma cells; assay: MTT cytotoxicity test in TE-671 cells; details: TE-671 cells, 48 h treatment, MTT assay
[13] = 1 μg/mL, TE-671 and HL-CZ cells, 12, 24 and 48 h

Row | Structure (SMILES) | increase of OAS mRNA [2] [fold] | increase of PKR mRNA [3] [fold] | TI (ratio of CC50 to IC50) [4] | IC50 [4] [µg/mL] | increase of promoter activity of pISRE-Luc [5] | level of IFNα expression, dose dependence (IFNα expression) | CC50 at 48 h [6] [µg/mL] | increase of promoter activity of pGAS-Luc [7] [fold] | NO production (DAF signal) [9] | TI (ratio of CC50 to IC50) [10] | IC50 ([10]; TE-671, 48 h) [µg/mL] | inhibition of JEV replication in cell culture assay [10] | CC50 at 48 h [11] [µg/mL] | also measured
1 | O=C1c2cccc(O)c2C(=O)c2c(O)cc(CO)cc21 [Aloe-emodin, 1,8-dihydroxy-3-hydroxymethyl-anthraquinone] | 8.6 | 1294.4 | 5762 | 0.5 ± 0.02 (≈ 1.85 µM) | ca. 2.14 fold | dose-dependent increase | 2880 (≈ 10700 µM) | ~2.03 | greater DAF signal | 1743 | 1.51 ± 0.05 (≈ 5.59 µM) | dose-dependent inhibition | 2630 (≈ 9740 µM) | time-dependent inhibition of EV71 replication (enterovirus 71 (EV71) [1]; [13]): significantly inhibited; TI (ratio of CC50 to IC50) (enterovirus 71 (EV71) [1]; EV71, TE-671 cells): 18 800; IC50 (enterovirus 71 (EV71) [1]; EV71, TE-671, 48 h): 0.14 ± 0.04 µg/mL (≈ 0.518 µM); IC50 (enterovirus 71 (EV71) [1]; EV71, TE-671, read-out: IC50 for EV71): 0.14 to 0.52 µg/mL (≈ 0.518 to 1.92 µM); therapeutic index (TI) for anti-EV71 activity (enterovirus 71 (EV71) [1]; over TE-671 and HL-CZ cells): > 5000; increase in IFNα expression (IFNα expression): 2.5 fold; TI (ratio of CC50 to IC50) (enterovirus 71 (EV71) [8]; EV71, HL-CZ cells): 5540; IC50 (enterovirus 71 (EV71) [8]; Enterovirus A, EV71, 48 h): 0.52 ± 0.03 µg/mL (≈ 1.92 µM); antiviral effect on the replication of rhinovirus (rhinovirus): no antiviral effect; time-dependent inhibition of JEV replication [10, 13]: significantly inhibited; IC50 ([10]; TE-671, read-out: IC50 for JEV): 0.5 to 1.51 µg/mL (≈ 1.85 to 5.59 µM); therapeutic index (TI) for anti-JEV activity ([10]; over TE-671 and HL-CZ cells): > 1500
2 | COC(=O)C1=CCCN(C)C1 [Arecoline, arecoline] | – | – | >285.7 | 10.5 ± 0.3 (≈ 67.7 µM) | – | dose-dependent increase | > 3000 | 1.8 | greater DAF signal | >92.3 | 32.5 ± 0.4 (≈ 209 µM) | dose-dependent inhibition | > 3000 | –
3 | O.Oc1cc(O)c2c(c1)O[C@H](c1ccc(O)c(O)c1)[C@@H](O)C2 [Catechin, catechin] | – | – | – | – | – | – | – | – | – | – | – | – | – | CC50 [12]: >3000 µg/mL
4 | COc1ccc([C@@H]2CC(=O)c3c(O)cc(O)cc3O2)cc1O [Hesperetin, hesperetin] | – | – | – | – | – | – | – | – | – | 159 | 3.6 ± 0.5 (≈ 11.9 µM) | – | 574 (≈ 1900 µM) | –
5 | CC(C)=CC[C@@H](O)C1=CC(=O)c2c(O)ccc(O)c2C1=O [Shikonin, shikonin] | 5 | 1087 | >2500 | 1.2 ± 0.2 (≈ 4.16 µM) | ca. 1.2 fold | dose-dependent increase | > 3000 | – | – | 835.2 | 2.1 ± 0.5 (≈ 7.28 µM) | dose-dependent inhibition | 1750 (≈ 6080 µM) | –
